B1: AA residues 1–34 and 1220–1711: 53Bp1 deletion mutant, deletion of residues 35–1219 and 1712–1972 of SEQ ID NO: 2, HA-tagged (protein)
chain: MDPTGSQLDSDFSQQDTPCLIIEDSQPESQVLEDQGEEEFDMPQPPHGHVLHRHMRTIREVRTLVTRVITDVYYVDGTEVERKVTEETEEPIVECQECETEVSPSQTGGSSGDLGDISSFSSKASSLHRTSSGTSLSAMHSSGSSGKGAGPLRGKTSGTEPADFALPSSRGGPGKLSPRKGVSQTGTPVCEEDGDAGLGIRQGGKAPVTPRGRGRRGRPPSRTTGTRETAVPGPLGIEDISPNLSPDDKSFSRVVPRVPDSTRRTDVGAGALRRSDSPEIPFQAAAGPSDGLDASSPGNSFVGLRVVAKWSSNGYFYSGKITRDVGAGKYKLLFDDGYECDVLGKDILLCDPIPLDTEVTALSEDEYFSAGVVKGHRKESGELYYSIEKEGQRKWYKRMAVILSLEQGNRLREQYGLGPYEAVTPLTKAADISLDNLVEGKRKRRSNVSSPATPTASSSSSTTPTRKITESPRASMGVLSGKRKLITSEEERSPAKRGRKSATVKPGAVGAGEFVSPCESGDNTGE
modifications: HA tag; human 53Bp1
B2: AA residues 1–34 and 1047–1972: 53Bp1 deletion mutant, deletion of residues 35–1046 of SEQ ID NO: 2, HA-tagged (protein)
chain: MDPTGSQLDSDFSQQDTPCLIIEDSQPESQVLEDEARSEDPPTTPIRGNLLHFPSSQGEEEKEKLEGDHTIRQSQQPMKPISPVKDPVSPASQKMVIQGPSSPQGEAMVTDVLEDQKEGRSTNKENPSKALIERPSQNNIGIQTMECSLRVPETVSAATQTIKNVCEQGTSTVDQNFGKQDATVQTERGSGEKPVSAPGDDTESLHSQGEEEFDMPQPPHGHVLHRHMRTIREVRTLVTRVITDVYYVDGTEVERKVTEETEEPIVECQECETEVSPSQTGGSSGDLGDISSFSSKASSLHRTSSGTSLSAMHSSGSSGKGAGPLRGKTSGTEPADFALPSSRGGPGKLSPRKGVSQTGTPVCEEDGDAGLGIRQGGKAPVTPRGRGRRGRPPSRTTGTRETAVPGPLGIEDISPNLSPDDKSFSRVVPRVPDSTRRTDVGAGALRRSDSPEIPFQAAAGPSDGLDASSPGNSFVGLRVVAKWSSNGYFYSGKITRDVGAGKYKLLFDDGYECDVLGKDILLCDPIPLDTEVTALSEDEYFSAGVVKGHRKESGELYYSIEKEGQRKWYKRMAVILSLEQGNRLREQYGLGPYEAVTPLTKAADISLDNLVEGKRKRRSNVSSPATPTASSSSSTTPTRKITESPRASMGVLSGKRKLITSEEERSPAKRGRKSATVKPGAVGAGEFVSPCESGDNTGEPSALEEQRGPLPLNKTLFLGYAFLLTMATTSDKLASRSKLPDGPTGSSEEEEEFLEIPPFNKQYTESQLRAGAGYILEDFNEAQCNTAYQCLLIADQHCRTRKYFLCLASGIPCVSHVWVHDSCHANQLQNYRNYLLPAGYSLEEQRILDWQPRENPFQNLKVLLVSDQQQNFLELWSEILMTGGAASVKQHHSSAHNKDIALGVFDVVVTDPSCPASVLKCAEALQLPVVSQEWVIQCLIVGERIGFKQHPKYKHDYVSH
modifications: HA tag; human 53Bp1
B3: AA residues 1661–1972: 53Bp1 deletion mutant, deletion of residues 1–1660 of SEQ ID NO: 2, HA-tagged (protein)
chain: MGVLSGKRKLITSEEERSPAKRGRKSATVKPGAVGAGEFVSPCESGDNTGEPSALEEQRGPLPLNKTLFLGYAFLLTMATTSDKLASRSKLPDGPTGSSEEEEEFLEIPPFNKQYTESQLRAGAGYILEDFNEAQCNTAYQCLLIADQHCRTRKYFLCLASGIPCVSHVWVHDSCHANQLQNYRNYLLPAGYSLEEQRILDWQPRENPFQNLKVLLVSDQQQNFLELWSEILMTGGAASVKQHHSSAHNKDIALGVFDVVVTDPSCPASVLKCAEALQLPVVSQEWVIQCLIVGERIGFKQHPKYKHDYVSH
modifications: HA tag; human 53Bp1
B4: AA residues 1–34 and 1047–1711: 53Bp1 deletion mutant, deletion of residues 35–1046 and 1712–1972 of SEQ ID NO: 2, HA-tagged (protein)
chain: MDPTGSQLDSDFSQQDTPCLIIEDSQPESQVLEDEARSEDPPTTPIRGNLLHFPSSQGEEEKEKLEGDHTIRQSQQPMKPISPVKDPVSPASQKMVIQGPSSPQGEAMVTDVLEDQKEGRSTNKENPSKALIERPSQNNIGIQTMECSLRVPETVSAATQTIKNVCEQGTSTVDQNFGKQDATVQTERGSGEKPVSAPGDDTESLHSQGEEEFDMPQPPHGHVLHRHMRTIREVRTLVTRVITDVYYVDGTEVERKVTEETEEPIVECQECETEVSPSQTGGSSGDLGDISSFSSKASSLHRTSSGTSLSAMHSSGSSGKGAGPLRGKTSGTEPADFALPSSRGGPGKLSPRKGVSQTGTPVCEEDGDAGLGIRQGGKAPVTPRGRGRRGRPPSRTTGTRETAVPGPLGIEDISPNLSPDDKSFSRVVPRVPDSTRRTDVGAGALRRSDSPEIPFQAAAGPSDGLDASSPGNSFVGLRVVAKWSSNGYFYSGKITRDVGAGKYKLLFDDGYECDVLGKDILLCDPIPLDTEVTALSEDEYFSAGVVKGHRKESGELYYSIEKEGQRKWYKRMAVILSLEQGNRLREQYGLGPYEAVTPLTKAADISLDNLVEGKRKRRSNVSSPATPTASSSSSTTPTRKITESPRASMGVLSGKRKLITSEEERSPAKRGRKSATVKPGAVGAGEFVSPCESGDNTGE
modifications: HA tag; human 53Bp1
B5: AA residues 1–34 and 1411–1711: 53Bp1 deletion mutant, deletion of residues 35–1410 and 1712–1972 of SEQ ID NO: 2, HA-tagged (protein)
chain: MDPTGSQLDSDFSQQDTPCLIIEDSQPESQVLEDTRETAVPGPLGIEDISPNLSPDDKSFSRVVPRVPDSTRRTDVGAGALRRSDSPEIPFQAAAGPSDGLDASSPGNSFVGLRVVAKWSSNGYFYSGKITRDVGAGKYKLLFDDGYECDVLGKDILLCDPIPLDTEVTALSEDEYFSAGVVKGHRKESGELYYSIEKEGQRKWYKRMAVILSLEQGNRLREQYGLGPYEAVTPLTKAADISLDNLVEGKRKRRSNVSSPATPTASSSSSTTPTRKITESPRASMGVLSGKRKLITSEEERSPAKRGRKSATVKPGAVGAGEFVSPCESGDNTGE
modifications: HA tag; human 53Bp1

This is an account of results in patent US7217532B2, “Methods for detecting DNA damage and screening for cancer therapeutics” (The Wistar Institute of Anatomy and Biology, priority 2000, dated 2007).

The first test deals with 53Bp1 foci in U2OS cells. The experiment in a line: Effect of wortmannin or caffeine on ionizing radiation-induced 53Bp1 foci, by immunofluorescent microscopy. The class given is cell-based, human. The conditions noted are these: 20 μM wortmannin, 1 Gy ionizing radiation, at 30 minutes.
As to `COC[C@H]1OC(=O)c2coc3c2[C@@]1(C)C1=C(C3=O)[C@@H]2CCC(=O)[C@@]2(C)C[C@H]1OC(C)=O` [wortmannin], the “reduction of percentage of cells containing 53Bp1 ionizing radiation-induced foci” value is reported as ~50%.

The test system of the next test is ionizing radiation-induced foci in U2OS cells. Briefly: Localization of HA-tagged 53Bp1 deletion mutants to ionizing radiation-induced foci in U2OS cells. In kind it is cell-based, human. The settings on record: HA-tagged proteins expressed in U2OS cells, immunofluorescence after ionizing radiation. From the text: Stably transfected U2OS cell lines were created by transfecting the plasmid pSV2 [Chehab, N. H. et al, 1999 Proc. Natl. Acad. Sci., USA, 96:13777–13782] containing various N-terminal hemaglutinin (HA) tagged versions of 53Bp1. HA53Bp1 is the full-length protein bearing the HA tag on its N terminus. HA53Bp1ΔBRCT is similar to HA53Bp1 with amino acids 1713 to 1973 (the BRCT domains) of SEQ ID NO: 2 deleted therefrom. HA53Bp1C312 contains only the C-terminal 312 amino acids of 53Bp1, which include the nuclear localization signal (i.e., amino acids 1662 to 1701 of SEQ ID NO: 2 and the BRCT domain (amino acids 1702–1973 of SEQ ID NO: 2). The U2OS cells on cover slips were transiently transfected with the selected plasmid using the calcium phosphate method. Positively transfected colonies were pooled after selecting with neomycin. Expression was allowed to occur for 30 hours and then cells were treated, fixed, stained, and visualized as described below.
The following experiments were performed to identify the minimal focus-targeting (FT) domain of the relatively large (1972 amino acids) 53Bp1 protein [SEQ ID NO: 2]. The FT domain is the portion of the protein sequence required for targeting to ionizing radiation-induced foci. The FT domain participates in the mechanism of 53Bp1 relocalization. In addition, fragments of 53Bp1 that retain the ability to form ionizing radiation-induced foci act as dominant negative mutants by competing with endogenous 53Bp1 for localization to the IR-induced 53Bp1-binding sites.
A series of 53Bp1 deletion mutants was generated and expressed as HA-tagged proteins in U2OS cells. These cells were examined by immuno-fluorescence for their intracellular localization in response to ionizing radiation, as described in Examples 1 and 2. Nuclear localization is considered to be a prerequisite for targeting of 53Bp1 to ionizing radiation-induced foci. Therefore, all the mutants were constructed so that they retained the NLS of 53Bp1.
“AA residues 1–1053 and 1220–1972: 53Bp1 deletion mutant, deletion of residues 1054–1219 of SEQ ID NO: 2, HA-tagged”: the “Ionizing Radiation-Induced Foci Localization” value is recorded as “Yes”.
On the same count and under the same terms, for “AA residues 1–1053 and 1411–1972: 53Bp1 deletion mutant, deletion of residues 1054–1410 of SEQ ID NO: 2, HA-tagged” the value was “No”; for “AA residues 1–1711: 53Bp1 deletion mutant, deletion of AA residues 1712–1972 of SEQ ID NO: 2, HA-tagged”, “Yes”.
Same read-out and setting: for “full-length: full-length 53Bp1, AA residues 1–1972 of SEQ ID NO: 2, HA-tagged” the value was “Yes”; for B1, “Yes”.
B2: the “Ionizing Radiation-Induced Foci Localization” value is “Yes”.
Still for that read-out and setting: next, B3: “No”; B4: “Yes”.
As to B5, the “Ionizing Radiation-Induced Foci Localization” value was “No”.

The next test concerns 53Bp1 foci in U2OS cells. Briefly: 53Bp1 foci formation in cells treated with DNA damaging agents, by immunofluorescence. The conditions noted are these: 0.2 mM etoposide; 1 mM hydroxyurea for 1 to 25 hours.
Consider `NC(=O)NO` [HU, hydroxyurea], for which the “53Bp1-containing foci formation in treated cells” value is “do not form”.
